Measured values: ChEMBL document CHEMBL1201862, “PubChem BioAssay data set” (2004)
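Protocol summary: plate cells (96-well), add compound at 5 concentrations, incubate 48 h, interpolate endpoints linearly. At the GI50, growth is halved.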 Calls of active or inactive are those of the source. Cut-off read from the data, not from the text of the source: active = GI50 up to about 1.1 µM and inactive = higher.

Tests used:
Test in all cases: growth of human tumour cells (NCI), 48 h
HT-29 = tested on: HT-29
SF-295 = tested on: SF-295
A498 = tested on: A498
U-251 = tested on: U-251
KM12 = tested on: KM12
COLO 205 = tested on: COLO 205
HOP-92 = tested on: HOP-92
NCI-H522 = tested on: NCI-H522
NCI-H226 = tested on: NCI-H226
M14 = tested on: M14
SN12C = tested on: SN12C
SF-539 = tested on: SF-539
A549 = tested on: A549
SK-MEL-5 = tested on: SK-MEL-5
786-0 = tested on: 786-0
HCT-116 = tested on: HCT-116
SK-MEL-2 = tested on: SK-MEL-2
PC-3 = tested on: PC-3
DU-145 = tested on: DU-145

SMILES | GI50 (HT-29) | GI50 (SF-295) | GI50 (A498) | GI50 (U-251) | GI50 (KM12) | GI50 (COLO 205) | GI50 (HOP-92) | GI50 (NCI-H522) | GI50 (NCI-H226) | GI50 (M14) | GI50 (SN12C) | GI50 (SF-539) | GI50 (A549) | GI50 (SK-MEL-5) | GI50 (786-0) | GI50 (HCT-116) | GI50 (SK-MEL-2) | GI50 (PC-3) | GI50 (DU-145)
O=C(Nc1ccc(Cl)cc1Cl)C1C(=O)N(c2ccc(Cl)cc2Cl)C(=O)/C1=N\Nc1ccc([N+](=O)[O-])cc1[N+](=O)[O-] (centres undefined) | 35.8 µM (inactive) | 45.3 µM (inactive) | 47.5 µM (inactive) | 48.8 µM (inactive) | 34.5 µM (inactive) | 52.5 µM (inactive) | 23.3 µM (inactive) | 21.5 µM (inactive) | 39.6 µM (inactive) | 52 µM (inactive) | 74.6 µM (inactive) | 36.6 µM (inactive) | > 100 µM (inactive) | 79.8 µM (inactive) | 67.8 µM (inactive) | 26.9 µM (inactive) | 42.9 µM (inactive) | – | –
COc1ccc(-c2nc(-c3cnccn3)n(C3OC(CO)C(O)C3O)n2)cc1 (centres undefined) | > 10 µM (inactive) | > 10 µM (inactive) | – | > 10 µM (inactive) | > 10 µM (inactive) | – | > 10 µM (inactive) | > 10 µM (inactive) | > 10 µM (inactive) | > 10 µM (inactive) | > 10 µM (inactive) | > 10 µM (inactive) | > 10 µM (inactive) | – | > 10 µM (inactive) | – | > 10 µM (inactive) | > 10 µM (inactive) | –
O=C1NC(=O)C2C(=O)NC(=O)C1C2Cc1ccco1 (centres undefined) | > 100 µM (inactive) | > 100 µM (inactive) | > 100 µM (inactive) | – | > 100 µM (inactive) | > 100 µM (inactive) | > 100 µM (inactive) | > 100 µM (inactive) | > 100 µM (inactive) | > 100 µM (inactive) | > 100 µM (inactive) | > 100 µM (inactive) | > 100 µM (inactive) | > 100 µM (inactive) | > 100 µM (inactive) | – | > 100 µM (inactive) | – | –
CN1CN(c2ccccc2)C2(CCN(CCc3csc4ccccc34)CC2)C1=O | 4.04 µM (inactive) | – | – | 14.5 µM (inactive) | 12.6 µM (inactive) | 14.3 µM (inactive) | – | 15.9 µM (inactive) | 17.4 µM (inactive) | 16.7 µM (inactive) | 15.6 µM (inactive) | 11 µM (inactive) | 24.2 µM (inactive) | 17.5 µM (inactive) | 14.5 µM (inactive) | 11.3 µM (inactive) | – | 12 µM (inactive) | 18.7 µM (inactive)
COC(=O)C1=CC(O)CCC1c1ccc(OC)cc1 (centres undefined) | > 100 µM (inactive) | > 100 µM (inactive) | > 100 µM (inactive) | > 100 µM (inactive) | > 100 µM (inactive) | > 100 µM (inactive) | > 100 µM (inactive) | > 100 µM (inactive) | > 100 µM (inactive) | > 100 µM (inactive) | > 100 µM (inactive) | > 100 µM (inactive) | > 100 µM (inactive) | > 100 µM (inactive) | > 100 µM (inactive) | > 100 µM (inactive) | > 100 µM (inactive) | – | –
CCCCC/C(C=O)=C\c1ccccc1 | > 100 µM (inactive) | > 100 µM (inactive) | > 100 µM (inactive) | > 100 µM (inactive) | > 100 µM (inactive) | > 100 µM (inactive) | > 100 µM (inactive) | – | > 100 µM (inactive) | > 100 µM (inactive) | – | > 100 µM (inactive) | – | > 100 µM (inactive) | > 100 µM (inactive) | > 100 µM (inactive) | > 100 µM (inactive) | > 100 µM (inactive) | > 100 µM (inactive)
Cc1ccc(NC(=O)CCc2nnc(S)[nH]2)cc1 | > 100 µM (inactive) | > 100 µM (inactive) | > 100 µM (inactive) | > 100 µM (inactive) | > 100 µM (inactive) | > 100 µM (inactive) | > 100 µM (inactive) | > 100 µM (inactive) | > 100 µM (inactive) | > 100 µM (inactive) | > 100 µM (inactive) | > 100 µM (inactive) | > 100 µM (inactive) | > 100 µM (inactive) | > 100 µM (inactive) | > 100 µM (inactive) | > 100 µM (inactive) | – | –
CC(=O)C1=C(O)C(N)C2Cc3c(c(O)c4c(O)c(C)ccc4c3C)C(=O)C2(O)C1=O (centres undefined) | 2.23 µM (inactive) | 1.26 µM (inactive) | 2.8 µM (inactive) | 0.885 µM (active) | 1.9 µM (inactive) | 1.64 µM (inactive) | 1.6 µM (inactive) | 3.98 µM (inactive) | 1.56 µM (inactive) | 2.47 µM (inactive) | 1.37 µM (inactive) | 1.35 µM (inactive) | 1.61 µM (inactive) | 1.19 µM (inactive) | 2.58 µM (inactive) | 1.28 µM (inactive) | 3.56 µM (inactive) | – | –
Cc1cc(O)c(C=O)c(C)c1CCC1(C)C=Cc2cc(O)ccc2O1 (centres undefined) | 31 µM (inactive) | 23.4 µM (inactive) | 39.8 µM (inactive) | 21.4 µM (inactive) | 31.3 µM (inactive) | 15.6 µM (inactive) | 22.2 µM (inactive) | 14.8 µM (inactive) | 26.5 µM (inactive) | 17.5 µM (inactive) | 29.3 µM (inactive) | 18.3 µM (inactive) | 35.9 µM (inactive) | 25.2 µM (inactive) | 29.3 µM (inactive) | 16.8 µM (inactive) | 24.1 µM (inactive) | – | –
N#C/C(=C1\SC(/N=N/c2ccccc2)C(=O)N1c1ccccc1)c1nc2ccccc2[nH]1 (centres undefined) | > 100 µM (inactive) | 61.2 µM (inactive) | > 100 µM (inactive) | 54.2 µM (inactive) | – | > 100 µM (inactive) | 23.5 µM (inactive) | > 100 µM (inactive) | 71.1 µM (inactive) | 78.2 µM (inactive) | > 100 µM (inactive) | 29.7 µM (inactive) | > 100 µM (inactive) | 57 µM (inactive) | 7.35 µM (inactive) | > 100 µM (inactive) | 68.5 µM (inactive) | – | –
Fc1ccc(/N=C2C=C/C(=N\c3ccc(F)cc3)c3ccccc3\2)cc1 | > 100 µM (inactive) | 51.4 µM (inactive) | > 100 µM (inactive) | > 100 µM (inactive) | – | > 100 µM (inactive) | 19.4 µM (inactive) | > 100 µM (inactive) | 77.4 µM (inactive) | > 100 µM (inactive) | > 100 µM (inactive) | 54.1 µM (inactive) | > 100 µM (inactive) | > 100 µM (inactive) | > 100 µM (inactive) | > 100 µM (inactive) | > 100 µM (inactive) | – | –
O=S(=O)(O)c1ccc([Se][Se]c2ccc(S(=O)(=O)O)cc2)cc1 | > 100 µM (inactive) | > 100 µM (inactive) | > 100 µM (inactive) | > 100 µM (inactive) | > 100 µM (inactive) | > 100 µM (inactive) | > 100 µM (inactive) | 60.5 µM (inactive) | > 100 µM (inactive) | > 100 µM (inactive) | > 100 µM (inactive) | > 100 µM (inactive) | > 100 µM (inactive) | > 100 µM (inactive) | > 100 µM (inactive) | > 100 µM (inactive) | > 100 µM (inactive) | – | –
